# Where two headings read alike, the source gives them in different places.
# Columns and labels:
# [1] = Heat generation after soaking in de-ionized water; format: physicochemical; details: in 7.0 grams de-ionized water; coated samples crushed after 0.5 to 2.0 hours
# Procedure: To analyze the samples for heat generation, 0.80 grams of each sample of calcium chloride including a moisture protective layer was added to four separate vials each containing 7.0 grams of de-ionized water and 0.73 grams of the control sample was added to a fifth vial containing 7.0 grams of de-ionized water. Using a J type thermocouple (commercially available from Omega Engineering, Inc., Stamford, Conn.) and a data logger, the temperature of the samples was measured over a period of 180 seconds. The four vials containing the samples of microencapsulated heat delivery vehicle including a moisture protective layer were allowed to remain in the de-ionized water for 0.5 hours, 1.0 hour, 1.5 hours, and 2.0 hours, respectively, at which time the samples were activated by crushing the samples by hand using a metal rod. The temperature of the water in the four vials was measured for a period of 180 seconds after crushing the samples.
# [2] = 35 wt % in mineral oil, added to 7.0 grams de-ionized water
# Procedure: All five samples were then individually added to 7.0 grams de-ionized water and the resulting temperature rise was measured using a Barnant Scanning Thermocouple (available from Therm-X of California, Hayward, Calif.).
# All four samples were then added to 7.0 grams de-ionized water and the resulting temperature rise was measured using a J type Thermocouple (available from Omega Engineering, Inc., Stamford, Conn.).
# [3] = tested on: Methicillin-resistant Staphylococcus aureus; details: 22° C. compared to 50° C.; 0.005% active PHMB
# Procedure: This Example utilized 1.5-milliliter tubes containing a 1-milliliter blend of phosphate-buffered saline (pH 7.2) and 5% (w/v) bovine serum albumin soil. The tubes were placed in electric heat blocks set for 22° C., 30° C., 40° C. and 50° C., respectively. The tubes remained in the electric heat blocks for approximately 10 minutes.
# After 10 minutes, 0.005% (by weight) active polyhexamehtylene biguanide (PHMB) (commercially available as Cosmocil® CQ from Arch Biocides, Inc., United Kingdom) was added to two tubes at each temperature level. Duplicate tubes without PHMB at each temperature were also made.
# The tubes were then vortexed and Methicillin-resistant Staphylococcus aureus (approximately 1×10^5 colony forming units (CFU)) was then added to each tube. All of the tubes were then placed back into the heat blocks at their respective temperatures.
# Following a 10-minute contact time, 0.1 milliliters of each sample was transferred to 0.9 milliliters letheen broth to neutralize the PHMB activity. The letheen samples were then plated in duplicate on Tryptic Soy agar plates using a WASP2 spiral plater (commercially available from Don Whitley Scientific, Ltd., Yorkshire, United Kingdom). The plates were inverted and incubated at 37±2° C. for 48 hours.
# After 48 hours, the plates were evaluated using a total plate count to determine the biocidal efficacy of each sample.
compound,measurement,setting,value
"[Ca+2].[Cl-].[Cl-] [Example 11 control sample, calcium chloride]",heat generation after contact with water,[1],produced heat immediately upon being introduced into water but only for a short period of time
"[Ca+2].[Cl-].[Cl-] [anhydrous calcium chloride, calcium chloride]",rate of heat generation,[2]; particle size 149-355 micrometers vs four other size ranges,generated heat at the highest rate
"[Cl-].[Cl-].[Mg+2] [anhydrous magnesium chloride, magnesium chloride]",rate of heat generation,[2]; particle size less than 250 micrometers vs three other size ranges,generated heat at the highest rate
polyhexamethylene biguanide [PHMB],LOG10 difference in efficacy,[3],greater than 1.4 LOG10

# From US7914891B2, “Wipes including microencapsulated delivery vehicles and phase change materials” (Kimberly-Clark Worldwide, Inc., priority 2005, dated 2011)
